This assay addresses T1, CCDC6-RET (Homo sapiens, UniProt P07949+Q16204+Q96SW2).
T1 construct: CCDC6 (natural N-terminal fusion partner, UniProt Q16204); endogenous in cells; host or cells: TPC-1 (parental, papillary thyroid carcinoma)
Kind of assay: Cellular RET degradation, AlphaLISA, TPC-1 cell line. The format is cell-based. Particulars: for Dmax: TPC1, human, 24 h, read-out: Cell Density TPC-1/CCDC6-RET Ymax %; for DC50: read-out: Cell Density TPC-1/CCDC6-RET DC50, half-maximal degradation concentration, TPC-1 (CCDC6-RET), 24 hrs. In outline: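 Luminescent AlphaLISA read of RET abundance in lysates after 24 h compound exposure (37 °C, 2% FBS DMEM) of CCDC6-RET-bearing TPC-1 cells. % degradation relative to DMSO (high) and media (low) controls, fitted to 4-parameter logistic curve for DC50 and Ymax.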
In general terms: In Alpha technology, singlet oxygen from a donor bead excites a nearby acceptor bead.

Structures are written as SMILES.

T1 sequence (Q16204+P07949 fused): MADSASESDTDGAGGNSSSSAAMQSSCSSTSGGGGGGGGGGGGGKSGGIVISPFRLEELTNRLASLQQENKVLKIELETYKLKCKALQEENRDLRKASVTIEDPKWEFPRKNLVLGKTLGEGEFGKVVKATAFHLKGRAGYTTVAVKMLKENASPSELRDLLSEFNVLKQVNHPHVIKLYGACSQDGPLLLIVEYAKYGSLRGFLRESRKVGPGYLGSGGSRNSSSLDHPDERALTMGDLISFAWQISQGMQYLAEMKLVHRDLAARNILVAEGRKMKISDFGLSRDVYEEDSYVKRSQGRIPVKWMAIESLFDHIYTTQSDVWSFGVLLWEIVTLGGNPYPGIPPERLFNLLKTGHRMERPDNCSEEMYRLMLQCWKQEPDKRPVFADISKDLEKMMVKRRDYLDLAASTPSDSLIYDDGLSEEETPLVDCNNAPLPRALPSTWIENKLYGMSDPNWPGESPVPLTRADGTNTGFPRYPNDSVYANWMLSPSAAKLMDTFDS
T1 sequence (Q96SW2 whole entry, the tested form may be a part): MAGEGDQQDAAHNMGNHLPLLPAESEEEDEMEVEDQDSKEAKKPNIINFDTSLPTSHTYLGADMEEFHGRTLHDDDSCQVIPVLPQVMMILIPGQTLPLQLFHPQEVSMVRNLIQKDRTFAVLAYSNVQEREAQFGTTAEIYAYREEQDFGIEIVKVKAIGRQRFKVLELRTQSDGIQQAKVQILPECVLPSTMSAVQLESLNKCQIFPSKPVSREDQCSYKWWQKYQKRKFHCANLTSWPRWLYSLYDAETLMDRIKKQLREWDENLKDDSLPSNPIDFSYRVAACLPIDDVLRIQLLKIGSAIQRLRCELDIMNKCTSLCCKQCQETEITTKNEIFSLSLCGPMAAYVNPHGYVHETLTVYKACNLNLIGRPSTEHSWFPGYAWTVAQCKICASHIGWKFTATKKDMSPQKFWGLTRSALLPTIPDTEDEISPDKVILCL
T1 sequence (Q16531 whole entry partner, the tested form may be a part): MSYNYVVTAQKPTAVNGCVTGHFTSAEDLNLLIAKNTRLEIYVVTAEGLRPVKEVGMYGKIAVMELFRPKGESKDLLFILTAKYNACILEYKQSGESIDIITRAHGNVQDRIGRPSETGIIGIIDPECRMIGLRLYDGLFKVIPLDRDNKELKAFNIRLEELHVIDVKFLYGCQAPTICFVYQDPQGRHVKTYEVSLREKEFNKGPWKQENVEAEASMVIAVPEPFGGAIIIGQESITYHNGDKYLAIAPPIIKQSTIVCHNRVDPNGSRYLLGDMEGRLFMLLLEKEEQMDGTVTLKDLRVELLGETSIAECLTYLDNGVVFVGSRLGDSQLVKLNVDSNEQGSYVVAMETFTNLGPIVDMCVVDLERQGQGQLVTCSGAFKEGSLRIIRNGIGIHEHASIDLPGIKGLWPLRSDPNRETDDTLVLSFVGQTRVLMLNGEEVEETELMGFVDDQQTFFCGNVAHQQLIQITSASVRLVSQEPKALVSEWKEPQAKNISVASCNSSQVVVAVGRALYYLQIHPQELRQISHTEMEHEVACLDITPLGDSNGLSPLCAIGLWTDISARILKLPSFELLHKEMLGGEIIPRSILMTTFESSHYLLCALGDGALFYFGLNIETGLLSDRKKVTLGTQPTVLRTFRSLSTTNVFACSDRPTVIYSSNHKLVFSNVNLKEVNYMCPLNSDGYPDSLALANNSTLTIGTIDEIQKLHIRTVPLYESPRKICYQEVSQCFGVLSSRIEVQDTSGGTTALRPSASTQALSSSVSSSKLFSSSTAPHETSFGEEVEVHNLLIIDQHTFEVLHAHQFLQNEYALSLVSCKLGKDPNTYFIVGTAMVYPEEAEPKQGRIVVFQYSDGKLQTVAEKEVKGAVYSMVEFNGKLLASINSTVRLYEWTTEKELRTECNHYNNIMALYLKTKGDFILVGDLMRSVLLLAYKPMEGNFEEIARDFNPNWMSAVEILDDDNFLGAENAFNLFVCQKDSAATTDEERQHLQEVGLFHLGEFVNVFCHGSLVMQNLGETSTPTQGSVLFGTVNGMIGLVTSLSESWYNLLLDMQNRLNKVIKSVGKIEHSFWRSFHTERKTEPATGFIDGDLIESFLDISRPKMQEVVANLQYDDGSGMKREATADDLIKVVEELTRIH

Turning to `CCOc1cc(-c2ccc(N3CCC(CN4CCN(C(=O)CCN5CCN(c6ccc7c(c6)C(=O)N(C6CCC(=O)NC6=O)C7)CC5)CC4)(NC(=O)c4cc(F)ccc4F)CC3)nc2)c2c(C#N)cnn2c1` (centres unmarked) [Example 12, N-(1-(5-(3-cyano-6-ethoxypyrazolo[1,5-a]pyridin-4-yl)pyridin-2-yl)-4-((4-(3-(4-(2-(2,6-dioxopiperidin-3-yl)-3-oxoisoindolin-5-yl)piperazin-1-yl)propanoyl)piperazin-1-yl)methyl)piperidin-4-yl)-2,5-difluorobenzamide], the Dmax was more than 90% and the DC50 was less than 2 nM.

Consider `CCOc1cc(-c2ccc(N3CCC(CN4CCN(C(=O)CCCCCCN5CCN(c6ccc7c(c6)CN(C6CCC(=O)NC6=O)C7=O)CC5)CC4)(NC(=O)CC(C)C)CC3)nc2)c2c(C#N)cnn2c1` (centres unmarked) [Example 3, N-(1-(5-(3-cyano-6-ethoxypyrazolo[1,5-a]pyridin-4-yl)pyridin-2-yl)-4-((4-(7-(4-(2-(2,6-dioxopiperidin-3-yl)-1-oxoisoindolin-5-yl)piperazin-1-yl)heptanoyl)piperazin-1-yl)methyl)piperidin-4-yl)-3-methylbutanamide], for which the Dmax was more than 90% and the DC50 was in the range of 2 to 10 nM.

`CCOc1cc(-c2ccc(N3CCC(CN4CCN(CCC(=O)N5CCC6(CC5)CCN(c5ccc7c(c5)CN(C5CCC(=O)NC5=O)C7=O)CC6)CC4)(NC(=O)c4cc(F)ccc4F)CC3)nc2)c2c(C#N)cnn2c1` (centres unmarked) [Example 90, N-[1-(5-{3-cyano-6-ethoxypyrazolo[1,5-a]pyridin-4-yl}pyridin-2-yl)-4-{[4-(3-{9-[2-(2,6-dioxopiperidin-3-yl)-1-oxo-2,3-dihydro-1H-isoindol-5-yl]-3,9-diazaspiro[5.5]undecan-3-yl}-3-oxopropyl)piperazin-1-yl]methyl}piperidin-4-yl]-2,5-difluorobenzamide]: the Dmax was more than 90% and the DC50 was 10 to 100 nM.

Take `CCOc1cc(-c2ccc(N3CCC(COCC(=O)NCCCCN4CCN(c5ccc6c(c5)CN(C5CCC(=O)NC5=O)C6=O)CC4)(NC(=O)c4cc(F)ccc4F)CC3)nc2)c2c(C#N)cnn2c1` (centres unmarked) [Example 31, N-[1-[5-(3-cyano-6-ethoxy-pyrazolo[1,5-a]pyridin-4-yl)-2-pyridyl]-4-[[2-[4-[4-[2-(2,6-dioxo-3-piperidyl)-1-oxo-isoindolin-5-yl]piperazin-1-yl]butylamino]-2-oxo-ethoxy]methyl]-4-piperidyl]-2,5-difluoro-benzamide]: the Dmax lay in the range of 60 to 90% and the DC50 lay within 2 to 10 nM.

In the case of `CCOc1cc(-c2ccc(N3CCC(CN4CCN(C(=O)CCN5CCN(c6ccc7c(c6)CN(C6CCC(=O)NC6=O)C7=O)CC5)CC4)(C(=O)NC(C)C)CC3)nc2)c2c(C#N)cnn2c1` (centres unmarked) [Example 77, 1-(5-(3-Cyano-6-ethoxypyrazolo[1,5-a]pyridin-4-yl)pyridin-2-yl)-4-((4-(3-(4-(2-(2,6-dioxopiperidin-3-yl)-1-oxoisoindolin-5-yl)piperazin-1-yl)propanoyl)piperazin-1-yl)methyl)-N-isopropylpiperidine-4-carboxamide], the Dmax fell in the range of 60 to 90% and the DC50 was less than 2 nM.

As to `CCOc1cc(-c2ccc(N3CCC(CN4CCN(CCOCCOCCC(=O)Nc5ccc6c(N7CCC(=O)NC7=O)nn(C)c6c5)CC4)(NC(=O)c4cc(F)ccc4F)CC3)nc2)c2c(C#N)cnn2c1` [Example 108, N-[1-(5-{3-cyano-6-ethoxypyrazolo[1,5-a]pyridin-4-yl}pyridin-2-yl)-4-[(4-{2-[2-(2-{[3-(2,4-dioxo-1,3-diazinan-1-yl)-1-methyl-1H-indazol-6-yl]carbamoyl}ethoxy)ethoxy]ethyl}piperazin-1-yl)methyl]piperidin-4-yl]-2,5-difluorobenzamide], the Dmax fell in the range of 60 to 90% and the DC50 was in the range of 10 to 100 nM.

Take `CCOc1cc(-c2ccc(N3CCC(NC(=O)c4cc(F)ccc4F)(C(=O)NCCN4CCC(c5ccc6c(c5)CN(C5CCC(=O)NC5=O)C6=O)CC4)CC3)nc2)c2c(C#N)cnn2c1` (centres unmarked) [Example 156, 1-(5-{3-cyano-6-ethoxypyrazolo[1,5-a]pyridin-4-yl}pyridin-2-yl)-4-(2,5-difluorobenzamido)-N-(2-{4-[2-(2,6-dioxopiperidin-3-yl)-1-oxo-2,3-dihydro-1H-isoindol-5-yl]piperidin-1-yl}ethyl)piperidine-4-carboxamide]: the Dmax lay in the range of 60 to 90% and the DC50 lay within 2 to 10 nM.

Consider `CCOc1cc(-c2ccc(N3CCC(NC(=O)c4cc(F)ccc4F)(C(=O)NCCN4CCC(c5ccc6c(c5)C(=O)N(C5CCC(=O)NC5=O)C6)CC4)CC3)nc2)c2c(C#N)cnn2c1` (centres unmarked) [Example 161, 1-(5-{3-cyano-6-ethoxypyrazolo[1,5-a]pyridin-4-yl}pyridin-2-yl)-4-(2,5-difluorobenzamido)-N-(2-{4-[2-(2,6-dioxopiperidin-3-yl)-3-oxo-2,3-dihydro-1H-isoindol-5-yl]piperidin-1-yl}ethyl)piperidine-4-carboxamide], for which the Dmax lay in the range of 60 to 90% and the DC50 is less than 2 nM.

As for `CCOc1cc(-c2ccc(N3CCC(Cc4ccccc4)(NC(=O)N4CCC(N5CCC(c6ccc7c(c6)C(=O)N(C6CCC(=O)NC6=O)C7)CC5)CC4)CC3)nc2)c2c(C#N)cnn2c1` (centres unmarked) [Example 56, N-[4-benzyl-1-[5-(3-cyano-6-ethoxy-pyrazolo[1,5-a]pyridin-4-yl)-2-pyridyl]-4-piperidyl]-4-[4-[2-(2,6-dioxo-3-piperidyl)-3-oxo-isoindolin-5-yl]-1-piperidyl]piperidine-1-carboxamide], the Dmax was in the range of 60 to 90% and the DC50 was in the range of 2 to 10 nM.

With `CCOc1cc(-c2ccc(N3CCC(CN4CCN(C5CN(C(=O)c6ccc7c(c6)CN(C6CCC(=O)NC6=O)C7=O)C5)CC4)(NC(=O)c4cc(F)ccc4F)CC3)nc2)c2c(C#N)cnn2c1` (centres unmarked) [Example 63, N-[1-(5-{3-cyano-6-ethoxypyrazolo[1,5-a]pyridin-4-yl}pyridin-2-yl)-4-[(4-{1-[2-(2,6-dioxopiperidin-3-yl)-1-oxo-2,3-dihydro-1H-isoindole-5-carbonyl]azetidin-3-yl}piperazin-1-yl)methyl]piperidin-4-yl]-2,5-difluorobenzamide], the Dmax was 60 to 90% and the DC50 was 2 to 10 nM.

As for `CCOc1cc(-c2ccc(N3CCC(CN4CCN(CC5CCN(C(=O)Cc6ccc7c(c6)C(=O)N(C6CCC(=O)NC6=O)C7)CC5)CC4)(NC(=O)c4cc(F)ccc4F)CC3)nc2)c2c(C#N)cnn2c1` (centres unmarked) [Example 113, N-[1-(5-{3-cyano-6-ethoxypyrazolo[1,5-a]pyridin-4-yl}pyridin-2-yl)-4-({4-[(1-{2-[2-(2,6-dioxopiperidin-3-yl)-3-oxo-2,3-dihydro-1H-isoindol-5-yl]acetyl}piperidin-4-yl)methyl]piperazin-1-yl}methyl)piperidin-4-yl]-2,5-difluorobenzamide], the Dmax is more than 90% and the DC50 is less than 2 nM.

On to `CCOc1cc(-c2ccc(N3CCC(CN(C(=O)CCCCCCN4CCC(c5ccc6c(c5)C(=O)N(C5CCC(=O)NC5=O)C6)CC4)C(C)C)(NC(=O)c4cc(F)ccc4F)CC3)nc2)c2c(C#N)cnn2c1` (centres unmarked) [Example 171, N-[1-(5-{3-cyano-6-ethoxypyrazolo[1,5-a]pyridin-4-yl}pyridin-2-yl)-4-[(7-{4-[2-(2,6-dioxopiperidin-3-yl)-3-oxo-2,3-dihydro-1H-isoindol-5-yl]piperidin-1-yl}-N-(propan-2-yl)heptanamido)methyl]piperidin-4-yl]-2,5-difluorobenzamide], for which the Dmax was more than 90% and the DC50 is 2 to 10 nM.

As for `CCOc1cc(-c2ccc(N3CCC(NC(=O)c4cc(F)ccc4F)(C(=O)NCCN4CCN(c5ccc6c(c5)C(=O)N(C5CCC(=O)NC5=O)C6)CC4)CC3)nc2)c2c(C#N)cnn2c1` (centres unmarked) [Example 158, 1-(5-{3-cyano-6-ethoxypyrazolo[1,5-a]pyridin-4-yl}pyridin-2-yl)-4-(2,5-difluorobenzamido)-N-(2-{4-[2-(2,6-dioxopiperidin-3-yl)-3-oxo-2,3-dihydro-1H-isoindol-5-yl]piperazin-1-yl}ethyl)piperidine-4-carboxamide], the Dmax was 60 to 90% and the DC50 was less than 2 nM.

Regarding `CCOc1cc(-c2ccc(N3CCC(CN4CCN(C(=O)CCN5CCC(c6ccc7c(c6)C(=O)N(C6CCC(=O)NC6=O)C7)CC5)CC4)CC3)nc2)c2c(C#N)cnn2c1` (centres unmarked) [Example 126, 4-[6-(4-{[4-(3-{4-[2-(2,6-dioxopiperidin-3-yl)-3-oxo-2,3-dihydro-1H-isoindol-5-yl]piperidin-1-yl}propanoyl)piperazin-1-yl]methyl}piperidin-1-yl)pyridin-3-yl]-6-ethoxypyrazolo[1,5-a]pyridine-3-carbonitrile], the Dmax was in the range of 60 to 90% and the DC50 is 100 to 2000 nM.

Regarding `CCOc1cc(-c2ccc(N3CCC(NC(=O)c4cc(F)ccc4F)(C(=O)NCCCCN4CCC(c5ccc6c(c5)C(=O)N(C5CCC(=O)NC5=O)C6)CC4)CC3)nc2)c2c(C#N)cnn2c1` (centres unmarked) [Example 162, 1-(5-{3-cyano-6-ethoxypyrazolo[1,5-a]pyridin-4-yl}pyridin-2-yl)-4-(2,5-difluorobenzamido)-N-(4-{4-[2-(2,6-dioxopiperidin-3-yl)-3-oxo-2,3-dihydro-1H-isoindol-5-yl]piperidin-1-yl}butyl)piperidine-4-carboxamide], the Dmax fell in the range of 60 to 90% and the DC50 was in the range of 10 to 100 nM.

As to `CCOc1cc(-c2ccc(N3CCC(C)(CN4CCN(C(=O)CCN5CCC(c6ccc7c(c6)C(=O)N(C6CCC(=O)NC6=O)C7)CC5)CC4)CC3)nc2)c2c(C#N)cnn2c1` (centres unmarked) [Example 147, 4-[6-(4-{[4-(3-{4-[2-(2,6-dioxopiperidin-3-yl)-3-oxo-2,3-dihydro-1H-isoindol-5-yl]piperidin-1-yl}propanoyl)piperazin-1-yl]methyl}-4-methylpiperidin-1-yl)pyridin-3-yl]-6-ethoxypyrazolo[1,5-a]pyridine-3-carbonitrile], the Dmax is 60 to 90% and the DC50 is 10 to 100 nM.

The record behind these values is US20260356830A1, “COMPOUNDS FOR MODULATING RET PROTEIN” (Bristol-Myers Squibb Company, priority 2022, published 2026).
